pIC50: −log10 of the molar value. Converted amounts (≈) assume the structure as drawn.
Tests used:
[1] = Inhibition of recombinant N-terminal His/MBP-tagged NDM-1 (unknown origin) expressed in Escherichia coli BL21 (DE3) measured immediately by spectrophotometry
[2] = tested on: Escherichia coli DH5[alpha]; settings: dose 32.0 mg/L
[3] = tested on: Escherichia coli DH5[alpha]; experiment: Inhibition of Escherichia coli DH5alpha NDM-1 assessed as MIC of meropenem at 8 mg/L by CLSI based microdilution method
Escherichia coli = experiment: microbe, parasite or virus in culture; settings: DH5[alpha]
Description: Antibacterial activity against Escherichia coli DH5alpha assessed as MIC of meropenem at 32 mg/L by CLSI based broth microdilution method (Rvb < 0.25 mg/L)

Row | SMILES | pIC50 [1] | MIC [2] [µg/mL] | MIC [3] [µg/mL] | MIC (Escherichia coli) [µg/mL]
1 | C[C@H](CS)C(=O)N1CCC(CC(=O)O)CC1 | 4.70 |  |  | 
2 | C[C@H](CS)C(=O)N1CCC[C@@H]1C(=O)O [D-CAPTOPRIL] | 4.66 | 4 (≈ 18.4 µM) |  | 
3 | C[C@H](CS)C(=O)N1CCC(C(=O)O)CC1 | 5.31 | 2 (≈ 8.65 µM) | 4 | 
4 | O=C(O)CN(CCN(CC(=O)O)CC(=O)O)CC(=O)O [EDETIC ACID] |  | < 0.25 | < 0.25 | < 0.25
5 | C[C@H](CS)C(=O)N1CCC(C(N)=O)CC1 | 4.95 |  |  | 
6 | C[C@H](CS)C(=O)N1Cc2ccccc2C[C@@H]1C(=O)O | < 3.52 |  |  | 
7 | O=C(O)[C@H]1CCCN1C(=O)C(CS)CS | 4.12 |  |  | 
8 | C[C@H](CS)C(=O)N1CCCCC[C@@H]1C(=O)O | 4.69 |  |  | 
9 | C[C@H](CS)C(=O)N1CCCC[C@@H]1C(=O)O | 5.16 | 2 (≈ 8.65 µM) | 4 | 
10 | C[C@H](CS)C(=O)N1CCC(CC(N)=O)CC1 | 4.55 |  |  | 
11 | C[C@H](CS)C(=O)N1CCC[C@H](C(=O)O)C1 | 4.55 |  |  | 
12 | C[C@H](CS)C(=O)N1CCc2ccccc2[C@@H]1C(=O)O | 5.34 | 4 (≈ 14.3 µM) | 8 | 

Reference: ChEMBL document CHEMBL4673350 (Bioorg Med Chem, 2021)
